Experimental data reported in BindingDB's records for doi:10.1016/j.ejmech.2017.05.061 (The University of Queensland, 2017).

Legend:
[1] = target: T1, Metallo-beta-lactamase AIM-1 (Pseudomonas aeruginosa, UniProt B5DCA0); assay: Competitive inhibition of Pseudomonas aeruginosa recombinant AIM1 expressed in Escherichia coli BL21(DE3) using cefuroxime as substrate by UV/Vis multi-plate spectrophotometric method
T1 sequence (B5DCA0 whole entry): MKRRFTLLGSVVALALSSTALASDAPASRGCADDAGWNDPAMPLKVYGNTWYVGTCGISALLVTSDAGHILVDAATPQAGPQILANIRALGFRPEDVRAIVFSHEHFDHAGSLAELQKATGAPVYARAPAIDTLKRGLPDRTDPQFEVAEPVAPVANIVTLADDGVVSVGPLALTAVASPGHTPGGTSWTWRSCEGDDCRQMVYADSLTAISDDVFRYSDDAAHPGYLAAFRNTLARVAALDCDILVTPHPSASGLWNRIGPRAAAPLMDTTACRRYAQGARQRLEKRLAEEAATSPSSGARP

[2] = target: Metallo-beta-lactamase type 2 (Aeromonas hydrophila, UniProt P26918); assay: Competitive inhibition of Aeromonas hydrophila recombinant CphA expressed in Escherichia coli BL21(DE3) using meropenem as substrate by UV/Vis multi-plate spectrophotometric method
Metallo-beta-lactamase type 2, sequence (P26918 whole entry): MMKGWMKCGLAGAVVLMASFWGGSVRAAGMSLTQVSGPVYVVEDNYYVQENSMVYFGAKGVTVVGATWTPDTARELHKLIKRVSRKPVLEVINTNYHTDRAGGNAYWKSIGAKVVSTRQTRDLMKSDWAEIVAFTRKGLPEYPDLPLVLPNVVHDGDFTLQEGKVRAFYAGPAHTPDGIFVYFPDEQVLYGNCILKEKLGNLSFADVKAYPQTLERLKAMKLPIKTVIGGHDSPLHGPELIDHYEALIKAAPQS

N#Cc1c(-c2ccccc2)c(-c2ccccc2)n(Cc2ccccc2)c1N
Ki [1]: 2.2 µM | Ki [2]: 52 µM

N#Cc1c(-c2ccccc2)c(-c2ccccc2)n(Cc2ccccc2)c1NC(=O)c1ccccc1
Ki [1]: 1.6 µM | Ki [2]: 11 µM

N#Cc1c(-c2ccccc2)c(-c2ccccc2)n(Cc2ccccc2)c1NC(=O)c1ccc([N+](=O)[O-])cc1
Ki [1]: 10.9 µM

N#Cc1c(-c2ccccc2)c(-c2ccccc2)n(Cc2ccccc2)c1NC(=O)c1ccc(C(=O)c2ccccc2)cc1
Ki [2]: 872 µM
